Counter-ions that a name gives are not always drawn.
Molecular target: T1, human ALK5 (Homo sapiens, UniProt P36897)
T1 construct: human ALK5 (recombinant TGF β1 N-term GST-tagged, 80-end); GST (N); purchased
T1 sequence (P36897 80-503 limits assumed): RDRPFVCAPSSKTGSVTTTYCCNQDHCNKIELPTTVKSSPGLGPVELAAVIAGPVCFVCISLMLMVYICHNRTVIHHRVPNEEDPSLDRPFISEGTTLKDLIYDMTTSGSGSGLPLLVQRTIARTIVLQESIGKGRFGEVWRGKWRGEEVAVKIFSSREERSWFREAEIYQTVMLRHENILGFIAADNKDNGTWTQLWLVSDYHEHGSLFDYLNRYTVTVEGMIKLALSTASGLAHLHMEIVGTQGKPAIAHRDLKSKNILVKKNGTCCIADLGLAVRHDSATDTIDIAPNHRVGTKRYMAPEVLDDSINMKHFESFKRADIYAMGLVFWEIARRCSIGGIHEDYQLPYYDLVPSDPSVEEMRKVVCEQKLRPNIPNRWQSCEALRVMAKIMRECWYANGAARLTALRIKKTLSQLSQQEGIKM
Assay: ADP-GLO Kinases assay of ALK5 enzymatic activity
Type: biochemical
Conditions: purified recombinant human ALK5, TGFβ1 peptide substrate, pIC50 converted to pKi by Cheng-Prusoff, high ATP protocol (15 μM) for very potent compounds, 25° C.
Procedure: The enzymatic activity of compounds of the present invention was monitored measuring the formation of ADP using the ADP-GLO Kinases assay. Following the incubation of the purified enzyme, a substrate and ATP, the produced ADP was converted into ATP, which in turn was converted into light by Ultra-Glo Luciferase. The luminescent signal positively correlated with ADP amount and kinase activity. […] Compound and ALK5 kinase were mixed and incubated for 15 mins. […] After an incubation of 120 min, the reaction was stopped, and ADP production detected with ADP-Glo kit according to manufacturer's indications. […] After an incubation of 60 min, the kinase reaction was stopped, and ADP production detected with ADP-Glo kit according to manufacturer's indications. All reaction and incubation steps were performed at 25° C. and the assays were performed in 384-well format and validated using a selection of reference compounds tested in 11-point concentration-response curve. […] Results were expressed as pIC50 (negative logarithm of IC50) and subsequently converted to pKi (negative logarithm of […]) using the Cheng-Prusoff equation. The higher the value of pKi, the greater the inhibition of ALK5 activity.

Row | Ki [nM] | Structure (SMILES)
1 | ≤ 0.1 | C[C@@H]1CN([C@H]2C[C@@H](C(=O)Nc3cc(Nc4cc(-c5cc(Cl)ccc5F)nnc4N(C)CC4(C)CCOC4=O)ncn3)C2)C[C@H](C)N1 (single isomer, unassigned) [Example 186, N-(6-{[6-(5-chloro-2-fluorophenyl)-3-{methyl[(3-methyl-2-oxooxolan-3-yl)methyl]amino}pyridazin-4-yl]amino}pyrimidin-4-yl)-3-(3,5-dimethylpiperazin-1-yl)cyclobutane-1-carboxamide]
2 | ≤ 0.1 | C[C@@H]1CN(CCC(=O)Nc2cc(Nc3cc(-c4cc(Cl)ccc4F)nnc3N(C)CC3(C)CCOC3=O)ncn2)C[C@H](C)N1 (single isomer, unassigned) [Example 198, N-(6-{[6-(5-chloro-2-fluorophenyl)-3-{methyl[(3-methyl-2-oxooxolan-3-yl)methyl]amino}pyridazin-4-yl]amino}pyrimidin-4-yl)-3-(3,5-dimethylpiperazin-1-yl)propanamide]
3 | ≤ 0.1 | COCC1(CN(C)c2nnc(-c3cc(Cl)ccc3F)cc2Nc2ccnc(NC(=O)CCN3CCN(C)CC3)c2)CCOC1=O (single isomer, unassigned) [Example 201, N-(4-{[6-(5-chloro-2-fluorophenyl)-3-({[3-(methoxymethyl)-2-oxooxolan-3-yl]methyl}(methyl)amino)pyridazin-4-yl]amino}pyridin-2-yl)-3-(4-methylpiperazin-1-yl)propanamide]
4 | 0.126 to 0.316 | COCC1(CN(C)c2nnc(-c3cc(Cl)ccc3F)cc2Nc2ccnc(NC(=O)CCN3CCN(C)CC3)c2)CCOC1=O (single isomer, unassigned) [Example 202, N-(4-{[6-(5-chloro-2-fluorophenyl)-3-({[3-(methoxymethyl)-2-oxooxolan-3-yl]methyl}(methyl)amino)pyridazin-4-yl]amino}pyridin-2-yl)-3-(4-methylpiperazin-1-yl)propanamide]
5 | ≤ 0.1 | CN1CCCN(CC(=O)Nc2cc(Nc3cc(-c4cc(Cl)ccc4F)nnc3N(C)CC3(C)CCOC3=O)ncn2)CC1 (single isomer, unassigned) [Example 208, N-(6-{[6-(5-chloro-2-fluorophenyl)-3-{methyl[(3-methyl-2-oxooxolan-3-yl)methyl]amino}pyridazin-4-yl]amino}pyrimidin-4-yl)-2-(4-methyl-1,4-diazepan-1-yl)acetamide]
6 | ≤ 0.1 | CN1CCN([C@@H]2CC[C@H](C(=O)Nc3cc(Nc4cc(-c5cc(Cl)ccc5F)nnc4SCCO)ccn3)C2)CC1 (single isomer, unassigned; enantiomer 1) [Example 188, Cis Enantiomer 1 N-(4-{[6-(5-chloro-2-fluorophenyl)-3-[(2-hydroxyethyl)sulfanyl]pyridazin-4-yl]amino}pyridin-2-yl)-3-(4-methylpiperazin-1-yl)cyclopentane-1-carboxamide]
7 | ≤ 0.1 | CN1CCN([C@@H]2CC[C@@H](C(=O)Nc3cc(Nc4cc(-c5cc(Cl)ccc5F)nnc4SCCO)ccn3)C2)CC1 (single isomer, unassigned; enantiomer 1) [Example 189, Trans Enantiomer 1 N-(4-{[6-(5-chloro-2-fluorophenyl)-3-[(2-hydroxyethyl)sulfanyl]pyridazin-4-yl]amino}pyridin-2-yl)-3-(4-methylpiperazin-1-yl)cyclopentane-1-carboxamide]
8 | ≤ 0.1 | CN1CCN([C@H]2C[C@@H](C(=O)Nc3cc(Nc4cc(-c5cc(Cl)ccc5F)nnc4N(C)CC4(C)CCOC4=O)ncn3)C2)CC1 (single isomer, unassigned; enantiomer 2) [Example 144, Cis Enantiomer 2 N-(6-{[6-(5-chloro-2-fluorophenyl)-3-{methyl[(3-methyl-2-oxooxolan-3-yl)methyl]amino}pyridazin-4-yl]amino}pyrimidin-4-yl)-3-(4-methylpiperazin-1-yl)cyclobutane-1-carboxamide]

Second part, the compound before the results:

Row | Structure (SMILES) | Ki [nM]
9 | CN1CCN([C@H]2C[C@@H](C(=O)Nc3cc(Nc4cc(-c5cc(Cl)ccc5F)nnc4OC4CCOC4)ccn3)C2)CC1 (single isomer, unassigned) [Example 113, N-(4-{[6-(5-chloro-2-fluorophenyl)-3-(oxolan-3-yloxy)pyridazin-4-yl]amino}pyridin-2-yl)-3-(4-methylpiperazin-1-yl)cyclobutane-1-carboxamide] | 0.126 to 0.316
10 | CN1CCN([C@H]2C[C@H](C(=O)Nc3cc(Nc4cc(-c5cc(Cl)ccc5F)nnc4OC4CCOC4)ccn3)C2)CC1 (single isomer, unassigned) [Example 114, N-(4-{[6-(5-chloro-2-fluorophenyl)-3-(oxolan-3-yloxy)pyridazin-4-yl]amino}pyridin-2-yl)-3-(4-methylpiperazin-1-yl)cyclobutane-1-carboxamide] | 0.126 to 0.316
11 | CN1CCN(CCC(=O)Nc2cc(Nc3cc(-c4cc(Cl)ccc4F)nnc3N(C)CC3(C)CCOC3=O)ccn2)CC1 (single isomer, unassigned) [Example 128, N-(4-{[6-(5-chloro-2-fluorophenyl)-3-{methyl[(3-methyl-2-oxooxolan-3-yl)methyl]amino}pyridazin-4-yl]amino}pyridin-2-yl)-3-(4-methylpiperazin-1-yl)propanamide] | ≤ 0.1
12 | CN(CCC(O)C(F)(F)F)c1nnc(-c2cc(Cl)ccc2F)cc1Nc1ccnc(NC(=O)CN2C[C@@H]3C[C@H]2CN3C)c1 (single isomer, unassigned) [Example 131] | ≤ 0.1
13 | CN1CCN([C@H]2C[C@@H](C(=O)Nc3cc(Nc4cc(-c5cc(Cl)ccc5F)nnc4N(C)CC4(C)CCOC4=O)ccn3)C2)CC1 (single isomer, unassigned) [Example 135, Cis N-(4-{[6-(5-chloro-2-fluorophenyl)-3-{methyl[(3-methyl-2-oxooxolan-3-yl)methyl]amino}pyridazin-4-yl]amino}pyridin-2-yl)-3-(4-methylpiperazin-1-yl)cyclobutane-1-carboxamide] | ≤ 0.1
14 | CN1CCN([C@H]2C[C@@H](C(=O)Nc3cc(Nc4cc(-c5cc(Cl)ccc5F)nnc4N(C)CC4(C)CCOC4=O)ccn3)C2)CC1 (single isomer, unassigned) [Example 136, Cis N-(4-{[6-(5-chloro-2-fluorophenyl)-3-{methyl[(3-methyl-2-oxooxolan-3-yl)methyl]amino}pyridazin-4-yl]amino}pyridin-2-yl)-3-(4-methylpiperazin-1-yl)cyclobutane-1-carboxamide] | 0.126 to 0.316
15 | CN1CCN(CCC(=O)Nc2cc(Nc3cc(-c4cc(Cl)ccc4F)nnc3N(C)CC3(C)CCOC3=O)ncn2)CC1 (single isomer, unassigned; enantiomer 1) [Example 138, Enantiomer 1 N-(6-{[6-(5-chloro-2-fluorophenyl)-3-{methyl[(3-methyl-2-oxooxolan-3-yl)methyl]amino}pyridazin-4-yl]amino}pyrimidin-4-yl)-3-(4-methylpiperazin-1-yl)propanamide] | ≤ 0.1
16 | CN1CCN([C@H]2C[C@@H](C(=O)Nc3cc(Nc4cc(-c5cc(Cl)ccc5F)nnc4N(C)CC4(C)CCOC4=O)ncn3)C2)CC1 (single isomer, unassigned; enantiomer 1) [Example 143, Cis Enantiomer 1 N-(6-{[6-(5-chloro-2-fluorophenyl)-3-{methyl[(3-methyl-2-oxooxolan-3-yl)methyl]amino}pyridazin-4-yl]amino}pyrimidin-4-yl)-3-(4-methylpiperazin-1-yl)cyclobutane-1-carboxamide] | 0.126 to 0.316
17 | COC(=O)[C@H]1CN(c2nnc(-c3cc(Cl)ccc3F)cc2Nc2ccnc(NC(=O)CCN3CCN(C)CC3)c2)CCO1 (stereo in doubt) [Example 133, methyl 4-[6-(5-chloro-2-fluorophenyl)-4-({2-[3-(4-methylpiperazin-1-yl)propanamido]pyridin-4-yl}amino)pyridazin-3-yl]morpholine-2-carboxylate] | 0.126 to 0.316
18 | CN1CCN(CCC(=O)Nc2cc(Nc3cc(-c4cc(Cl)ccc4F)nnc3N3CCO[C@@H](C(=O)O)C3)ccn2)CC1 (stereo in doubt) [Example 134, 4-[6-(5-chloro-2-fluorophenyl)-4-({2-[3-(4-methylpiperazin-1-yl)propanamido]pyridin-4-yl}amino)pyridazin-3-yl]morpholine-2-carboxylate lithium salt] | 0.126 to 0.316
19 | CN1CCN(CCC(=O)Nc2cc(Nc3cc(-c4cc(Cl)ccc4F)nnc3OCCO)ccn2)CC1 [Example 1, N-(4-{[6-(5-chloro-2-fluorophenyl)-3-(2-hydroxyethoxy)pyridazin-4-yl]amino}pyridin-2-yl)-3-(4-methylpiperazin-1-yl)propanamide] | ≤ 0.1
20 | CN1CCN(CCOc2ccc3c(Nc4cc(-c5cc(Cl)ccc5F)nnc4OCCO)ccnc3c2)CC1 [Example 2, 2-{[6-(5-chloro-2-fluorophenyl)-4-({7-[2-(4-methylpiperazin-1-yl)ethoxy]quinolin-4-yl}amino)pyridazin-3-yl]oxy}ethan-1-ol] | ≤ 0.1
